The record followed here is ChEMBL document CHEMBL5579832, “Design, synthesis, and biological evaluation of pyrido[2,3-d]pyrimidin-7(8H)-one derivatives as potent USP1 inhibitors” (Eur J Med Chem, 2024).

Each structure is given as a SMILES string. Calls of active or inactive are those of the source. The calls are words filed in the database; no cut-off is given here.

Data set [1] concerns Olaparib-resistant MDA-MB-436. The data set is described as follows: Induction of cell cycle arrest in human Olaparib-resistant MDA-MB-436 cell assessed as accumulation of cells in S phase at 1 uM incubated for 24 hrs in the presence of olaparib by PI staining based flow cytometry analysis. The class given is functional.
Data set [2] has as its system Olaparib-resistant MDA-MB-436. The experiment in a line: Induction of cell cycle arrest in human Olaparib-resistant MDA-MB-436 cell assessed as accumulation of cells in G2/M phase at 1 uM incubated for 24 hrs in the presence of olaparib by PI staining based flow cytometry analysis. The format is functional.
Data set [3] addresses T1, Ubiquitin carboxyl-terminal hydrolase 25 (Homo sapiens) (UniProt Q9UHP3).
T1 sequence (whole entry): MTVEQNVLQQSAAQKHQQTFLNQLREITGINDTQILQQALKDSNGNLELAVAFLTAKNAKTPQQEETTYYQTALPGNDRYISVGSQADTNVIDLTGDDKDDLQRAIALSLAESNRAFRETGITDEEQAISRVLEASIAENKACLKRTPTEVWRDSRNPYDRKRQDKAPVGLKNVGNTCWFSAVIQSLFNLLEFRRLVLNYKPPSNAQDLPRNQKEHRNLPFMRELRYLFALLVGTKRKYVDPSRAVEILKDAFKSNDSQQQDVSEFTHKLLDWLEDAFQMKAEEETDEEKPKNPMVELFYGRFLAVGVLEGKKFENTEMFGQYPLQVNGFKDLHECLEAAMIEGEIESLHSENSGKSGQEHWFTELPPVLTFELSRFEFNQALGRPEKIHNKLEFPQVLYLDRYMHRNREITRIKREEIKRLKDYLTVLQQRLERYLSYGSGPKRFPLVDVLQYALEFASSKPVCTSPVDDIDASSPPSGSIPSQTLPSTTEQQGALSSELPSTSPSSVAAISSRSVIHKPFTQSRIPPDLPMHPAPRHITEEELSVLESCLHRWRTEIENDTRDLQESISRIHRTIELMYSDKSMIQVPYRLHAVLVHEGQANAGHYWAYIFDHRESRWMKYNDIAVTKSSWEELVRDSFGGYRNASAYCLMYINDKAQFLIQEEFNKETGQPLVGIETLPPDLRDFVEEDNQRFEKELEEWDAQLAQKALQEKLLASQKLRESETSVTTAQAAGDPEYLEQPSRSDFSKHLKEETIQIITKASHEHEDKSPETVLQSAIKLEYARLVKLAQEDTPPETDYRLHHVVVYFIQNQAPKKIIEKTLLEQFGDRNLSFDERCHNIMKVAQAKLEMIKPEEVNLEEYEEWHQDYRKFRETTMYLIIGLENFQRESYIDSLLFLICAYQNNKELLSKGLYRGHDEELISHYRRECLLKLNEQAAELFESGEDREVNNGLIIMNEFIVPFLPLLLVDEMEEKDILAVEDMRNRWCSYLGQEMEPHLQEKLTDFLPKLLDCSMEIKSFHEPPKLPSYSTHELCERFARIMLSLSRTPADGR
The data set is described as follows: Inhibition of recombinant human 6His-tagged USP25 using diubiquitin as a substrate at 0 to 10 uM preincubated for 15 mins followed by substrate addition and measured after 2 hrs by SDS-PAGE analysis. The settings on record: dose 0-10 µM, time 135.0 min.

Data set [4] in a line: AUC (0 to t) in male ICR mouse at 10 mg/kg, po administered as single dose and measured after 24 hrs. The note with it: in vivo. The class given is ADME, organism-based.
Data set [5] deals with Ubiquitin carboxyl-terminal hydrolase 9X (Homo sapiens) (UniProt Q93008). The experiment in a line: Inhibition of USP9X (unknown origin) using diubiquitin as a substrate at 0 to 10 uM preincubated for 15 mins followed by substrate addition and measured after 2 hrs by SDS-PAGE analysis. The settings on record: dose 0-10 µM, time 135.0 min.
Data set [6] has as its target T2, Ubiquitin carboxyl-terminal hydrolase 1/WD repeat-containing protein 48 (Homo sapiens) (UniProt O94782+Q8TAF3). The experiment in a line: Inhibition of USP1/UAF1 in human MDA-MB-436 cells assessed as increase in Ub-PCNA level at 20 nM incubated for 24 hrs by Western blot analysis. The class given is cell-based.
For data set [7], the system named is NCI-H1299. The experiment in a line: Inhibition of colony formation in human NCI-H1299 cells at 0.5 uM measured after 7 days by SRB staining based assay relative to control. The class given is functional. The note with it: NCI-H1299, 168 h, time 7 day.
Data set [8] can be described thus: Half life in male ICR mouse at 10 mg/kg, po administered as single dose and measured after 24 hrs. The note with it: in vivo. The class given is ADME, organism-based.
For data set [9], the target named is T2, Ubiquitin carboxyl-terminal hydrolase 1/WD repeat-containing protein 48 (Homo sapiens). The experiment in a line: Inhibition of USP1/UAF1 in human NCI-H1299 cells assessed as increase in Ub-PCNA levels at 20 nM incubated for 24 hrs by Western blot analysis. The format is cell-based.
The subject of data set [10] is MDA-MB-436. The data set is described as follows: Induction of cell cycle arrest in human MDA-MB-436 cells assessed as increase in cells at S phase at 1 uM incubated for 24 hrs by PI staining based flow cytometry analysis. The class given is functional.
Data set [11] has as its target T2, Ubiquitin carboxyl-terminal hydrolase 1/WD repeat-containing protein 48 (Homo sapiens). The data set is described as follows: Inhibition of recombinant human 6His-tagged USP1-6His-tagged UAF1 complex using diubiquitin as a substrate assessed as inhibiting the cleavage of K63-linked di-Ub at 0 to 10 uM preincubated for 15 mins followed by substrate addition and measured after 2 hrs by SDS-PAGE analysis. The format is protein-complex assay. The note with it: dose 0-10 µM, time 135.0 min.

The target of data set [12] is Ubiquitin carboxyl-terminal hydrolase 7 (Homo sapiens) (UniProt Q93009). The experiment in a line: Inhibition of recombinant human 8His-tagged USP7 using diubiquitin as a substrate at 0 to 10 uM preincubated for 15 mins followed by substrate addition and measured after 2 hrs by SDS-PAGE analysis. The settings on record: dose 0-10 µM, time 135.0 min.
A short description of data set [13]: Cmax in male ICR mouse at 10 mg/kg, po administered as single dose and measured after 24 hrs. The format is ADME, organism-based. The settings on record: in vivo.
Data set [14] has as its target T2, Ubiquitin carboxyl-terminal hydrolase 1/WD repeat-containing protein 48 (Homo sapiens). The experiment in a line: Inhibition of USP1/UAF1 in human Olaparib-resistant MDA-MB-436 cell assessed as increase in Ub-PCNA level at 20 nM incubated for 24 hrs by Western blot analysis. The format is cell-based.
In data set [15] the test system is Olaparib-resistant MDA-MB-436. The experiment in a line: Inhibition of colony formation in human Olaparib-resistant MDA-MB-436 cell at 100 nM measured after 7 days by SRB staining based assay relative to control. The class given is functional. The note with it: Olaparib-resistant MDA-MB-436, 168 h, time 7 day.
Data set [16] can be described thus: Tmax in male ICR mouse at 10 mg/kg, po administered as single dose and measured after 24 hrs. The format is ADME, organism-based. The note with it: in vivo.
The test system of data set [17] is Olaparib-resistant MDA-MB-436. The data set is described as follows: Induction of cell cycle arrest in human Olaparib-resistant MDA-MB-436 cell assessed as increase in cells at S phase at 1 uM incubated for 24 hrs by PI staining based flow cytometry analysis. The class given is functional.
Data set [18] addresses T2, Ubiquitin carboxyl-terminal hydrolase 1/WD repeat-containing protein 48 (Homo sapiens). The note with it: NCI-H1299, dose 20-500 nM, time 24.0 hrs.

Chain of Ubiquitin carboxyl-terminal hydrolase 9X (Homo sapiens) (Q93008 whole entry): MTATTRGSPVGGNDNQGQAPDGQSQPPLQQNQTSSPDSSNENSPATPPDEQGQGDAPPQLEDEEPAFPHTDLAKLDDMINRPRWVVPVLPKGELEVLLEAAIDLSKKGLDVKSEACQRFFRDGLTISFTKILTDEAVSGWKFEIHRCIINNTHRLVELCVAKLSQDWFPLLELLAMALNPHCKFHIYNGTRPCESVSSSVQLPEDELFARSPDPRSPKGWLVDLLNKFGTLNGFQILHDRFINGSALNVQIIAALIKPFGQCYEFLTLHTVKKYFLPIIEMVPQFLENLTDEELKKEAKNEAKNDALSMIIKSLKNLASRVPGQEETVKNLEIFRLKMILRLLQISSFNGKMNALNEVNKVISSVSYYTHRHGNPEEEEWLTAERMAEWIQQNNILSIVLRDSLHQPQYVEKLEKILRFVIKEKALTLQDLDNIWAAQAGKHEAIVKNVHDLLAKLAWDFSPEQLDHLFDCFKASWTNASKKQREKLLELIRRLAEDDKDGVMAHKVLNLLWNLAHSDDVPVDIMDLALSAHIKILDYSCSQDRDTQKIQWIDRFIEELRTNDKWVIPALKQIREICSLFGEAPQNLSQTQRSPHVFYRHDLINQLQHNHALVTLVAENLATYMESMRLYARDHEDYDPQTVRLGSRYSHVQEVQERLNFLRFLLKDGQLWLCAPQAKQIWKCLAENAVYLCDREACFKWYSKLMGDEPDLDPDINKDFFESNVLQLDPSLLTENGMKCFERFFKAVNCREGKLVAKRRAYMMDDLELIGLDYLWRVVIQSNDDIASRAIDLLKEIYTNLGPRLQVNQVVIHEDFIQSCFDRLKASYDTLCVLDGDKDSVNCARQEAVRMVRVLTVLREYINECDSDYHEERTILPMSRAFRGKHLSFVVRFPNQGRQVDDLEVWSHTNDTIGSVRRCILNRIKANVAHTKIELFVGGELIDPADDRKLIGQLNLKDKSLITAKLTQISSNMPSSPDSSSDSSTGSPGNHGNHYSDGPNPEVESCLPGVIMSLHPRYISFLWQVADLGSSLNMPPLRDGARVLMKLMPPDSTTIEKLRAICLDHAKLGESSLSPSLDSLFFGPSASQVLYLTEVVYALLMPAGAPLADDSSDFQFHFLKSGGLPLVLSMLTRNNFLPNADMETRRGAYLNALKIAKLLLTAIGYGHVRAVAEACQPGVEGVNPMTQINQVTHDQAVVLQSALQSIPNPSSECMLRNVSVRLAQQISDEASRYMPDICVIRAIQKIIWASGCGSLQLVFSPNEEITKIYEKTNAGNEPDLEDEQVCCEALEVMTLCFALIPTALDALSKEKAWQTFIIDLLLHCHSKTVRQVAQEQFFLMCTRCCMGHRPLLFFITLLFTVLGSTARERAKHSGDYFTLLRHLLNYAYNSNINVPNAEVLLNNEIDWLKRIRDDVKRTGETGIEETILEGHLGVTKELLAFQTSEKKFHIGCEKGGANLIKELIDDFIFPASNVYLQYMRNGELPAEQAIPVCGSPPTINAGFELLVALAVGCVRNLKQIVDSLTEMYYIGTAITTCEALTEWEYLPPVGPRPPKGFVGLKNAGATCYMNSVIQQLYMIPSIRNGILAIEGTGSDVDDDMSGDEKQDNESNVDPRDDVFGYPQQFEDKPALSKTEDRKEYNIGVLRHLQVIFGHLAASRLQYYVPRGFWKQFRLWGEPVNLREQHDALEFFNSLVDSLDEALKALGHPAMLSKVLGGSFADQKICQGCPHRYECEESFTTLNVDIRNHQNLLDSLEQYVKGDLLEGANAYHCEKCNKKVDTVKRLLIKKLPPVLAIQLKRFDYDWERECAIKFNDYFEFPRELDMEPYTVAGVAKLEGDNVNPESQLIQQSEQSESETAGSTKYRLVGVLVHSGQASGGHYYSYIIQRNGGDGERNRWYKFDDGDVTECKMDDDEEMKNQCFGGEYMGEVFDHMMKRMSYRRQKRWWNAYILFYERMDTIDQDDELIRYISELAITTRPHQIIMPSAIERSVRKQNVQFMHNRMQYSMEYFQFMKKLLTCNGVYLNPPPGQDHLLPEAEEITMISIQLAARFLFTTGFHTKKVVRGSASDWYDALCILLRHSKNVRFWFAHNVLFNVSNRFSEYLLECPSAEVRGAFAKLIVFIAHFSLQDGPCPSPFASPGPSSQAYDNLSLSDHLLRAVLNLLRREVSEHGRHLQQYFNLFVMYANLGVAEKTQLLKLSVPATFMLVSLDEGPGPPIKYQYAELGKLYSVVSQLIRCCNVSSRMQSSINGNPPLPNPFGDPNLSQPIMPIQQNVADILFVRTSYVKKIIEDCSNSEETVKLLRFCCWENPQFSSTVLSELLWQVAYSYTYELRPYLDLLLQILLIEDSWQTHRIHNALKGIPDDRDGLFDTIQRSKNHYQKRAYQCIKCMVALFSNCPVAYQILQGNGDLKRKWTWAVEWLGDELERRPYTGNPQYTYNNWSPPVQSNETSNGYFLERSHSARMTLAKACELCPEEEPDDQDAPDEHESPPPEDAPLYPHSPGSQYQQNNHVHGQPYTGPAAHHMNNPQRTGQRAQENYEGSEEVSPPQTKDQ
Chain of Ubiquitin carboxyl-terminal hydrolase 7 (Homo sapiens) (Q93009 whole entry, looked up): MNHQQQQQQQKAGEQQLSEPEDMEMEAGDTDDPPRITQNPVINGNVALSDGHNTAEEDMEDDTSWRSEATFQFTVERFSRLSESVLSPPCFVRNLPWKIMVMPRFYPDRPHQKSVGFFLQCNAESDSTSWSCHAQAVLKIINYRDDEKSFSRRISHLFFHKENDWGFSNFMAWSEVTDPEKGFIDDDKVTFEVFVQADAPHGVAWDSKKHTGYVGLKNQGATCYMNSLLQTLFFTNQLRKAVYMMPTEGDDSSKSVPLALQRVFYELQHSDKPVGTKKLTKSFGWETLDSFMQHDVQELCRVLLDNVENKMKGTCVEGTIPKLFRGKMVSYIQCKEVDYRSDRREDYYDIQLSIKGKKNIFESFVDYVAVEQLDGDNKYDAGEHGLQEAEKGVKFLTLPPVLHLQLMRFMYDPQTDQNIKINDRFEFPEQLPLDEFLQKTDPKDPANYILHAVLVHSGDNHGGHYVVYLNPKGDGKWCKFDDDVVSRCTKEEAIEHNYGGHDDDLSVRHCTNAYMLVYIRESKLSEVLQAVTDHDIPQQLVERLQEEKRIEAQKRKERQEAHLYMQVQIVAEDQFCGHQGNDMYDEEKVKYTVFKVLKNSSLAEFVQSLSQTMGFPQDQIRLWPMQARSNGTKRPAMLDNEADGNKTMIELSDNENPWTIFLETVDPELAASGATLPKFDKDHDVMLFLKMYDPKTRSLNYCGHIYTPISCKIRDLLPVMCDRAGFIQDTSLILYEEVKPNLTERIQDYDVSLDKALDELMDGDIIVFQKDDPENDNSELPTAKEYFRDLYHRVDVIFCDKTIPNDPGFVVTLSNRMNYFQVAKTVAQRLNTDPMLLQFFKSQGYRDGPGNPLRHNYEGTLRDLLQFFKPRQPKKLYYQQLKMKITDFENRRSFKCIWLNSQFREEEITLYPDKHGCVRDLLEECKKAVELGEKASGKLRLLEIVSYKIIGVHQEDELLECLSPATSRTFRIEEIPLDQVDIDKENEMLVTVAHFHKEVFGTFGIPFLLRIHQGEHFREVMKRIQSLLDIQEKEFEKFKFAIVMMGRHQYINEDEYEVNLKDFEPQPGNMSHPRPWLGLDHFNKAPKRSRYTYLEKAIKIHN

With `COc1ncnc(C2CC2)c1-c1ncc2ccc(=O)n(Cc3ccc(-c4nc(C(F)(F)F)cn4C(C)C)cc3)c2n1`, the outcome in data set [1], in data set [2], in data set [9], in [10] and in [17] was Active. The inhibition entry in data set [3], in data set [5] and in data set [12] was “inactive” throughout. For the same molecule, the AUC(0-t) at 24 h in data set [4] amounted to 35800 ng·h/mL. The inhibition entry in data set [6], in data set [11] and in data set [14] was “Active” each time. Further, at 0.5 µM the inhibition in data set [7] was 70%. The molecule also gave a half-life in data set [8] of 7.61 h. The peak level in data set [13] (Cmax) was 4780 ng/mL. In addition, the inhibition at 0.1 µM in data set [15] amounted to 30%. Further, the Tmax in [16] is 0.25 h. Also, in data set [18], the inhibition result is “Dose-Dependent Effect”.
